From patent publication US20240360153A1 (Regeneron Pharmaceuticals, Inc., priority 2023, published 2024)

Tests used:
[1] = system: S6K1 (Thr389) phosphorylation (mTORC1 activity) in FKBP12 knock-out 293T cells; assay: Inhibition of S6K1 (Thr389) phosphorylation in FKBP12 knock-out 293T cells (ELISA); type: cell-based, human; details: for selectivity for FKBP12 compared with RAD001 (in words): wild-type versus FKBP12 knock-out cells; for inhibition at 10 µM: Homo sapiens, HEK-293T, 10 μM (highest tested concentration)
Description: Example Generation of FKBP 12 knock-out cells. A CRISPR/Cas9 system was used to deliver ribonucleoprotein complexes containing guide RNA sequences that target FKBP12 (ac[…], location 1369062; ccactactcac[…], location 1369181) in HEK293T cells using Lipofectamine CRISPRMAX transfection reagent (Invitrogen CMAX00008). Cell clones were screened by immunoblotting with anti-FKBP-specific antibody (Novus, NB300-508). Single cells that were deficient for FKBP12 protein were selected and cloned.
(§1) Treatment of wild-type (WT) and FKBP12 knock-out 293T cells with RAD001 (everolimus) and test compounds. WT and FKBP12 knock-out 293T cells were cultured in Dulbecco's modified Eagle's medium (Gibco #11971-025) supplemented with 10% fetal bovine serum (Gibco #26140-079). Cells were plated at a density of 15,000 cells per well in poly-D-Lysine coated 96-well plates (Corning, #354461) and were incubated at 37° C., 5% CO2 for 24 hours until they reached ˜80% confluence. Cells were treated with RAD001 or test compounds reconstituted in dimethyl sulfoxide (DMSO) using a 8-11-point dose range, from 0.001 pM to 10 μM. All treatments were performed in duplicates for 2 hours at 37° C. Cell culture media supplemented with blank dimethyl sulfoxide (DMSO) was used as a negative control for all compounds. Phosphorylated amounts of S6K1 (Thr389) were measured using an ELISA kit (Invitrogen 85-86052-11), following the manufacture's protocol.
(§2) S6K1 is an immediate downstream target of mTORC1 and therefore phosphorylation of S6K1 at Thr389 residue is used to measure mTORC1 activity (PMID: 16968213). Amounts of phosphorylated S6K1 (Thr389) were measured in WT and FKBP12 knock-out 293T cells treated with either RAD001 or Compound 44 (FIGS. 1A and 1B), and Compound 45 (FIGS. 1C and 1D).

[2] = system: S6K1 (Thr389) phosphorylation (mTORC1 activity) in wild-type (WT) 293T cells; assay: Inhibition of S6K1 (Thr389) phosphorylation in wild-type 293T cells (ELISA); type: cell-based, human; details: for IC50: Homo sapiens, HEK-293T, 2 h, wild-type 293T cells, 2 hours treatment; for fold lower potency compared with RAD001 (by IC50) / extent of inhibition of S6K1 (Thr389) phosphorylation: wild-type cells; for extent of inhibition of S6K1 (Thr389) phosphorylation: with increasing concentrations
Protocol: as §1, §2

[3] = In vitro microsomal metabolic stability, CD-1 mouse liver microsomes; type: in vitro ADME; details: for Remaining (T = 60 min): with NADPH; for Remaining (T = NCF60 min): without NADPH regenerating system; for Remaining (T = 60 min) / Remaining (T = NCF60 min): 60 min
Protocol: (§3) Buffers: PBK Buffer: 50 mM potassium phosphate buffer (PPB), pH 7.2, with 3.3 mM Magnesium Chloride.
(§4) TA Intermediate solution: Compound or control (3 μL) diluted from stock solution (10 mM) with 297 μL 90.0% methanol/water. (Conc: 100 μM; 1.0% DMSO, 89.1% MeOH).
(§5) Control cocktail intermediate solution: Each control (3 μL) was diluted with 291 μL 90.0% methanol/water.
(§6) Diluted TA intermediate stock solution and PC control stock were made by transferring 80 μL of 100 μM TA stock solution into new tubes and then adding 720 μL of 1.0% DMSO in 50 mM potassium phosphate buffer (conc. 10 μM; 1.0% DMSO, 8.91% MeOH).
(§7) Preparation of Liver microsomes working solution (1.25×)(final Conc.: 0.5 mg/mL).
(§8) Acetonitrile:methanol (9:1, v/v)(including 200 ng/mL tolbutamide and 200 ng/ml labetalol hydrochloride as internal standards).
(§9) Working solution: Intermediate solution (80 μL) was diluted with 720 μL 1.0% DMSO in 50 mM potassium phosphate buffer (Conc.: 10 μM; 1.0% DMSO, 8.91% MeOH)
(§10) Procedure: Stock solution was added to each of the time point plates. Microsomes solution (360 μL/well), TA/PC (45 μL/well), and NADPH (45 μL/well) min. (Conc: 1.0 μM, 0.10% DMSO, 0.891% MeOH) were added to the incubation plates. To the T60 and NCF60 plate, TA (15 ul/well) and Microsomes (120 ul) were added. To the blank plate, microsome (50 ul/well) with stop solution (150 ul/well) were added. At the end of each time point, 50 ul/well was aliquoted from the incubation plate. The sampling plates were shaken for approximately 10 min. on a shaker and the samples were centrifuged at 4000 rpm for 15 min. Supernatant (120 μL) was transferred for LC/MS/MS.Compounds from Table 3 were incubated at 37° C. with liver microsomes (pooled from multiple donors) at 1 μM in the presence of a NADPH regenerating system at 0.5 mg/ml microsomal protein. Positive controls included testosterone (3A4 substrate), propafenone (2D6) and diclofenac (2C9), which were incubated with microsomes in the presence of an NADPH regenerating system. At time points (0, 5, 10, 20, 30 and 60 minutes), samples were removed and immediately mixed with cold acetonitrile containing the internal standard (IS). Test compounds incubated with microsomes without the NADPH regenerating system for 60 min are also included. A single point for each test condition (n=1) was obtained, and samples were analyzed by LC/MS/MS. Disappearance of the test compound was assessed based on peak area ratios of analyte/IS (no standard curve).

[4] = In vitro microsomal metabolic stability, human liver microsomes; type: in vitro ADME; details: for Remaining (T = 60 min): with NADPH; for Remaining (T = NCF60 min): without NADPH regenerating system; for Remaining (T = 60 min) / Remaining (T = NCF60 min): 60 min
Protocol: as §3, §4, §5, §6, §7, §8, §9, §10

[5] = Mouse liver microsomes, 1 μM, 0.5 mg/ml protein, NADPH
[6] = human, human liver microsomes, pH 7.2
[7] = CD-1, mouse, mouse liver microsomes, pH 7.2

Molecule	inhibition of S6K1 (Thr389) phosphorylation in the absence of FKBP12 (in words) ([1]; FKBP12 knock-out cells)	selectivity for FKBP12 compared with RAD001 (in words) [1]	IC50 [2]	fold lower potency compared with RAD001 (by IC50) [2]	extent of inhibition of S6K1 (Thr389) phosphorylation [2]	Remaining (T = 60 min) ([3]; Mouse liver microsomes)	Remaining (T = NCF60 min) ([3]; Mouse liver microsomes)	further results
COc1ccc(NC2C[C@@H]3CC[C@@H](C)[C@@](O)(O3)C(=O)C(=O)N3CCCCC3C(=O)O[C@H]([C@H](C)C[C@@H]3CC[C@@H](O)[C@H](OC)C3)CC[C@H](C)/C=C(\C)[C@@H](O)[C@@H](OC)C(=O)[C@H](C)C[C@H](C)/C=C/C=C/C=C/2C)cc1 (stereo partly drawn) [Compound 47, (3S,6S,7E,9R,10R,12R,14S,15E,17E,19E,23S,26R,27R,34aS)-9,27-dihydroxy-3-((R)-1-((1S,3R,4R)-4-hydroxy-3-methoxycyclohexyl)propan-2-yl)-10-methoxy-21-((4-methoxyphenyl)amino)-6,8,12,14,20,26-hexamethyl-5,6,9,10,12,13,14,21,22,23,24,25,26,27,32,33,34,34a-octadecahydro-3H-23,27-epoxypyrido[2,1-c][1]oxa[4]azacyclohentriacontine-1,11,28,29(4H,31H)-tetraone]	did not inhibit S6K1 (Thr389)phosphorylation at any tested concentrations	relatively more selective to FKBP12 compared with RAD001	69 nM	219 fold	near complete inhibition	–	–	–
Rapamycin [reference compound]	–	–	–	–	–	27%	102%	CL ([3]; Mouse liver microsomes): 43.1 µL/min/mg; CLint ([3]; Mouse liver microsomes): 171 mL/min/kg; T1/2 [3, 5]: 32.1 min
CO[C@H]1C[C@@H]2CC[C@@H](C)[C@@](O)(O2)C(=O)C(=O)N2CCCC[C@H]2C(=O)O[C@H]([C@H](C)C[C@@H]2CC[C@@H](O)[C@H](OC)C2)CC[C@H](C)/C=C(\C)[C@@H](O)[C@@H](OC)C(=O)[C@H](C)C[C@H](C)/C=C/C=C/C=C/1C [32-Deoxo Rapamycin, 32-deoxorapamycin, reference compound]	–	–	–	–	–	36%	110%	CL ([4]; Human liver microsomes): 405 µL/min/mg; CLint ([4]; Human liver microsomes): 364 mL/min/kg; T1/2 ([4]; Human liver microsomes, 1 μM, 0.5 mg/ml protein, NADPH): 3.4 min; Remaining (T = 60 min) ([4]; Human liver microsomes): 0.00%; Remaining (T = NCF60 min) ([4]; Human liver microsomes): 96%; CL ([3]; Mouse liver microsomes): 35.1 µL/min/mg; CLint ([3]; Mouse liver microsomes): 139 mL/min/kg; T1/2 [3, 5]: 39.5 min
COC1C(=O)[C@H](C)C[C@H](C)/C=C/C=C/C=C(\C)C(NS(=O)(=O)c2cccc(C)c2)C[C@@H]2CC[C@@H](C)[C@@](O)(O2)C(=O)C(=O)N2CCCC[C@H]2C(=O)OC([C@H](C)CC2CC[C@@H](O)C(OC)C2)CC[C@H](C)/C=C(\C)C1O (stereo partly drawn) [Compound 72, N-((3S,6S,7E,9R,10R,12R,14S,15E, 17E,19E,23S,26R,27R,34aS)-9,27-dihydroxy-3-((R)-1-((1S,3R,4R)-4-hydroxy-3-methoxycyclohexyl)propan-2-yl)-10-methoxy-6,8,12,14,20,26-hexamethyl-1,11,28,29-tetraoxo-1,4,5,6,9,10,11,12,13,14,21,22,23,24,25,26,27,28,29,31,32,33,34,34a-tetracosahydro-3H-23,27-epoxypyrido[2,1-c][1]oxa[4]azacyclohentriacontin-21-yl)-3-methylbenzenesulfonamide]	inhibited S6K1 (Thr389)phosphorylation in a dose dependent manner	–	0.914 nM	5.2 fold	near complete inhibition	–	–	inhibition at 10 µM ([1]; FKBP12 knock-out cells): 40%
CO[C@@H]1C[C@H](C[C@@H](C)[C@@H]2CC[C@H](C)/C=C(\C)[C@@H](O)[C@@H](OC)C(=O)[C@H](C)C[C@H](C)/C=C/C=C/C=C(\C)C(Nc3cnccn3)C[C@@H]3CC[C@@H](C)[C@@](O)(O3)C(=O)C(=O)N3CCCCC3C(=O)O2)CC[C@H]1O (stereo partly shown) [Compound 52]	did not inhibit S6K1 (Thr389)phosphorylation at any tested concentrations	selective to FKBP12	9.15 nM	25 fold	near complete inhibition	–	–	–
COC1C(=O)[C@H](C)C[C@H](C)/C=C/C=C/C=C(\C)C(N(C)S(=O)(=O)c2ccccc2)C[C@@H]2CC[C@@H](C)[C@@](O)(O2)C(=O)C(=O)N2CCCC[C@H]2C(=O)OC([C@H](C)CC2CC[C@@H](O)C(OC)C2)CC[C@H](C)/C=C(\C)C1O (stereo partly drawn) [Compound 73, N-((3S,6S,7E,9R,10R,12R,14S,15E, 17E,19E,23S,26R,27R,34aS)-9,27-dihydroxy-3-((R)-1-((1S,3R,4R)-4-hydroxy-3-methoxycyclohexyl)propan-2-yl)-10-methoxy-6,8,12,14,20,26-hexamethyl-1,11,28,29-tetraoxo-1,4,5,6,9,10,11,12,13,14,21,22,23,24,25,26,27,28,29,31,32,33,34,34a-tetracosahydro-3H-23,27-epoxypyrido[2,1-c][1]oxa[4]azacyclohentriacontin-21-yl)-N-methylbenzenesulfonamide]	–	not FKBP12 selective	2.22 nM	13 fold	near complete inhibition	–	–	concentration achieving 20% inhibition of S6K1 (Thr389) phosphorylation ([1]; FKBP12 knock-out cells): 2.7 nM; inhibition at 10 µM ([1]; FKBP12 knock-out cells): ~60%
CO[C@@H]1C[C@H](C[C@@H](C)[C@@H]2CC[C@H](C)/C=C(\C)[C@@H](O)[C@@H](OC)C(=O)[C@H](C)C[C@H](C)/C=C/C=C/C=C(\C)C(Nc3ccsc3)C[C@@H]3CC[C@@H](C)[C@@](O)(O3)C(=O)C(=O)N3CCCCC3C(=O)O2)CC[C@H]1O (stereo partly drawn) [Compound 60, (3S,6S,7E,9R,10R,12R,14S,15E,17E,19E,23S,26R,27R,34aS)-9,27-dihydroxy-3-((R)-1-((1S,3R,4R)-4-hydroxy-3-methoxycyclohexyl)propan-2-yl)-10-methoxy-6,8,12,14,20,26-hexamethyl-21-(thiophen-3-ylamino)-5,6,9,10,12,13,14,21,22,23,24,25,26,27,32,33,34,34a-octadecahydro-3H-23,27-epoxypyrido[2,1-c][1]oxa[4]azacyclohentriacontine-1,11,28,29(4H,31H)-tetraone]	–	–	–	–	–	5.6%	75%	Remaining (T = 60 min) ([4]; Human liver microsomes): 6.6%; Remaining (T = NCF60 min) ([4]; Human liver microsomes): 99%; CLint scaled at 1 µM [4, 6]: 80.4 mL/min/kg; microsomal CLint at 1 µM [4, 6]: 89.3 µL/min/mg; half-life at 1 µM ([4]; pH 7.2, Human liver microsomes, 1 μM, 0.5 mg/ml protein, NADPH): 16 min; CLint scaled at 1 µM [3, 7]: 370 mL/min/kg; microsomal CLint at 1 µM [3, 7]: 93.5 µL/min/mg; half-life at 1 µM ([3]; CD-1, pH 7.2, Mouse liver microsomes, 1 μM, 0.5 mg/ml protein, NADPH): 14.8 min
